In patent publication US12491170B2, “Stable treprostinil prodrugs” (United Therapeutics Corporation, priority 2020, dated 2025):
Like-named read-outs stand apart in the source and are kept apart here.

Assays:
[1] = rat
[2] = Stability in cryopreserved hepatocytes, dog; conditions: for AUC: dog
[3] = Stability in liver microsomes, human; conditions: for AUC: human
[4] = Stability in liver microsomes, rat
[5] = Stability in liver microsomes, dog
[6] = dog
[7] = Stability in cryopreserved hepatocytes, rat; conditions: for AUC: rat
[8] = Stability in cryopreserved hepatocytes, human; conditions: for AUC: human

| SMILES | AUC [1] | Trep Concentration (μM) 0 min [2] | Trep Concentration (μM) 15 min [2] | Trep Concentration (μM) 30 min [2] | Trep Concentration (μM) 60 min [2] | Trep Concentration (μM) 120 min [2] | AUC [2] | Trep Concentration 0 min [3] | Trep Concentration 10 min [3] | Trep Concentration 20 min [3] | Trep Concentration 30 min [3] | Trep Concentration 60 min [3] | AUC [3] | Trep Concentration 0 min [4] | Trep Concentration 10 min [4] | Trep Concentration 20 min [4] | Trep Concentration 30 min [4] | Trep Concentration 60 min [4] | Trep Concentration 0 min [5] | Trep Concentration 10 min [5] | further results |
| --- | --- | --- | --- | --- | --- | --- | --- | --- | --- | --- | --- | --- | --- | --- | --- | --- | --- | --- | --- | --- | --- |
| CCCCCC(CCC1C(O)CC2Cc3c(cccc3OCC(=O)O)CC21)OCC(=O)O (stereo not drawn) [LVII] | 0.00 µmol·min/L | 0 µM | 0 µM | 0 µM | 0 µM | 0 µM | 0.00 µmol·min/L | 0 µM | 0 µM | 0 µM | 0 µM | 0 µM | 0.00 µmol·min/L | 0 µM | 0 µM | 0 µM | 0 µM | 0 µM | 0 µM | 0 µM | Trep Concentration 20 min [5]: 0 µM; Trep Concentration 30 min [5]: 0 µM; Trep Concentration 60 min [5]: 0 µM; AUC [6]: 0.00 µmol·min/L; Trep Concentration (μM) 0 min [7]: 0 µM; Trep Concentration (μM) 15 min [7]: 0 µM; Trep Concentration (μM) 30 min [7]: 0 µM; Trep Concentration (μM) 60 min [7]: 0 µM; Trep Concentration (μM) 120 min [7]: 0 µM; AUC [7]: 0.00 µmol·min/L; Trep Concentration (μM) 0 min [8]: 0 µM; Trep Concentration (μM) 15 min [8]: 0 µM; Trep Concentration (μM) 30 min [8]: 0 µM; Trep Concentration (μM) 60 min [8]: 0 µM; Trep Concentration (μM) 120 min [8]: 0 µM; AUC [8]: 0.00 µmol·min/L |
| CCCCCC(CCC1C(O)CC2Cc3c(cccc3OCC(=O)O)CC21)Oc1ccccc1C(=O)O (stereo not drawn) [LVI] | 0.00 µmol·min/L | 0 µM | 0.005 µM | 0.005 µM | 0.003 µM | 0 µM | 0.00 µmol·min/L | 0 µM | 0 µM | 0 µM | 0 µM | 0 µM | 0.00 µmol·min/L | 0 µM | 0 µM | 0 µM | 0 µM | 0 µM | 0 µM | 0 µM | Trep Concentration 20 min [5]: 0.003 µM; Trep Concentration 30 min [5]: 0 µM; Trep Concentration 60 min [5]: 0 µM; AUC [6]: 0.00 µmol·min/L; Trep Concentration (μM) 0 min [7]: 0 µM; Trep Concentration (μM) 15 min [7]: 0 µM; Trep Concentration (μM) 30 min [7]: 0 µM; Trep Concentration (μM) 60 min [7]: 0 µM; Trep Concentration (μM) 120 min [7]: 0 µM; AUC [7]: 0.00 µmol·min/L; Trep Concentration (μM) 0 min [8]: 0 µM; Trep Concentration (μM) 15 min [8]: 0 µM; Trep Concentration (μM) 30 min [8]: 0 µM; Trep Concentration (μM) 60 min [8]: 0 µM; Trep Concentration (μM) 120 min [8]: 0 µM; AUC [8]: 0.00 µmol·min/L |
| CCCCCC(CCC1C(O)CC2Cc3c(cccc3OCC(=O)O)CC21)OC(=O)c1ccc(C(F)(F)F)cc1 (stereo not drawn) [LXII] | 7.47 µmol·min/L | 0 µM | 0.0486 µM | 0.0833 µM | 0.128 µM | 0.166 µM | 13.34 µmol·min/L | 0.0917 µM | 0.141 µM | 0.174 µM | 0.2 µM | 0.206 µM | 10.70 µmol·min/L | 0.0741 µM | 0.0998 µM | 0.124 µM | 0.139 µM | 0.139 µM | 0.127 µM | 0.188 µM | Trep Concentration 20 min [5]: 0.254 µM; Trep Concentration 30 min [5]: 0.3 µM; Trep Concentration 60 min [5]: 0.372 µM; AUC [6]: 16.64 µmol·min/L; Trep Concentration (μM) 0 min [7]: 0.00378 µM; Trep Concentration (μM) 15 min [7]: 0.0946 µM; Trep Concentration (μM) 30 min [7]: 0.156 µM; Trep Concentration (μM) 60 min [7]: 0.227 µM; Trep Concentration (μM) 120 min [7]: 0.264 µM; AUC [7]: 23.09 µmol·min/L; Trep Concentration (μM) 0 min [8]: 0 µM; Trep Concentration (μM) 15 min [8]: 0.0881 µM; Trep Concentration (μM) 30 min [8]: 0.14 µM; Trep Concentration (μM) 60 min [8]: 0.194 µM; Trep Concentration (μM) 120 min [8]: 0.222 µM; AUC [8]: 19.86 µmol·min/L |
| CCCCCC(CCC1C(O)CC2Cc3c(cccc3OCC(=O)O)CC21)OC(=O)C12CC3CC(CC(C3)C1)C2 (stereo not drawn) [LXIX] | 2.65 µmol·min/L | 0.00877 µM | 0.227 µM | 0.262 µM | 0.263 µM | 0.236 µM | 28.28 µmol·min/L | 0.321 µM | 0.365 µM | 0.367 µM | 0.36 µM | 0.252 µM | 19.91 µmol·min/L | 0.0251 µM | 0.0344 µM | 0.0421 µM | 0.0483 µM | 0.0527 µM | 0.517 µM | 0.57 µM | Trep Concentration 20 min [5]: 0.609 µM; Trep Concentration 30 min [5]: 0.696 µM; Trep Concentration 60 min [5]: 0.657 µM; AUC [6]: 38.15 µmol·min/L; Trep Concentration (μM) 0 min [7]: 0 µM; Trep Concentration (μM) 15 min [7]: 0.0238 µM; Trep Concentration (μM) 30 min [7]: 0.0421 µM; Trep Concentration (μM) 60 min [7]: 0.0712 µM; Trep Concentration (μM) 120 min [7]: 0.119 µM; AUC [7]: 8.08 µmol·min/L; Trep Concentration (μM) 0 min [8]: 0 µM; Trep Concentration (μM) 15 min [8]: 0.198 µM; Trep Concentration (μM) 30 min [8]: 0.294 µM; Trep Concentration (μM) 60 min [8]: 0.338 µM; Trep Concentration (μM) 120 min [8]: 0.335 µM; AUC [8]: 34.85 µmol·min/L |
